From US11485736B2 (KSQ Therapeutics, Inc., priority 2018, dated 2022)
Like-named read-outs stand apart in the source and are kept apart here.

Experiments:
[1] = Liver microsomal stability, human liver microsomes; type: in vitro ADME; conditions: 1 μM compound, NADPH, read-out: t1/2 (min) in HLM
Procedure, shortened: (§1)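 Compound (1 μM final) was incubated with prewarmed human or rat liver microsomes (1 mg/mL in 100 mM phosphate master mix) plus NADPH; aliquots at 0.5–30 minutes were quenched in cold acetonitrile and quantified by LC-MS/MS. Half-life came from the ln(% remaining) versus time slope, converted to CLint (μL/min/mg prot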

[2] = Liver microsomal stability, rat liver microsomes; type: in vitro ADME; conditions: 1 μM compound, NADPH, read-out: t1/2 (min) in RLM
Procedure, shortened: as §1

[3] = ADME solubility determination at pH 2.0 and pH 7.4; type: physicochemical; conditions: aqueous buffer, thermodynamic from solid, LC-MS/MS
Procedure, shortened: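 Dried residues of 10 mM DMSO stocks were shaken in PBS pH 7.4 or pH 2.0 for 24 hours at 25° C. and 1,100 rpm. After centrifugation, supernatants were quantified by LC-MS/MS against a standard of known concentration, applying a dilution factor.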

[4] = PBS pH 2.0, shaken at 25° C. for 24 hours, read-out: Solubility at pH 2.0
[5] = PBS pH 7.4, shaken at 25° C. for 24 hours, read-out: Solubility at pH 7.4

Row | Compound | half-life at 1 μM [1] | half-life at 1 μM [2] | solubility at 24 h [3, 4] | solubility at 24 h [3, 5]
1 | COc1cccc(C)c1-c1ncc2cnn(Cc3ccc(-c4nc(C(F)(F)F)cn4C)cc3)c2n1 [Example 5, 6-(2-methoxy-6-methylphenyl)-1-(4-(1-methyl-4-(trifluoromethyl)-1H-imidazol-2-yl)benzyl)-1H-pyrazolo[3,4-d]pyrimidine] | < 25 min | < 25 min | > 10 µM | < 10 µM
2 | COc1ncnc(C2CC2)c1-c1ncc2cnn([C@@H](C)c3ccc(-c4nc(C(F)(F)F)cn4C)cc3)c2n1 (single isomer, unassigned) [Example 92] | < 25 min | > 25 min | > 10 µM | > 10 µM
3 | COc1ncnc(C2CC2)c1-c1ncc2cnn(Cc3ccc(-c4nc(C(F)(F)F)cn4C)cc3F)c2n1 [Example 20] | > 25 min | > 25 min | < 10 µM | < 10 µM
4 | COc1ncnc(C2CC2)c1-c1ncc2cnn([C@H](C)c3ccc(-c4nc(C(F)(F)F)cn4C(C)C)cc3)c2n1 [Example 98] | > 25 min | < 25 min | > 10 µM | > 10 µM
5 | CCn1cc(C(F)(F)F)nc1-c1ccc(C(C)n2ncc3cnc(-c4c(OC)ncnc4C(C)C)nc32)cc1F (stereo not drawn) [Example 116] | < 25 min | < 25 min | > 10 µM | < 10 µM
6 | CCn1cc(C(F)(F)F)nc1-c1ccc(Cn2ncc3cnc(-c4c(OC5CC5)ncnc4C4CC4)nc32)cc1 [Example 63] | > 25 min | < 25 min | > 10 µM | < 10 µM
7 | COc1ncnc(C2CC2)c1-c1ncc2c(OC)nn([C@@H](C)c3ccc(-c4nc(C(F)(F)F)cn4C(C)C)cc3)c2n1 [Example 181] | > 25 min | > 25 min | > 10 µM | < 10 µM

Continued, values first:

Row | half-life at 1 μM [1] | half-life at 1 μM [2] | solubility at 24 h [3, 4] | solubility at 24 h [3, 5] | Compound
8 | < 25 min | < 25 min | > 10 µM | > 10 µM | COc1ncnc(C2CCC2)c1-c1ncc2cnn(Cc3ccc(-c4nc(C(F)(F)F)cn4C)cc3)c2n1 [Example 15]
9 | > 25 min | > 25 min | > 10 µM | > 10 µM | COc1ncnc(C2CC2)c1-c1ncc2cnn(Cc3ccc(-n4nc(C(F)(F)F)cc4OC4CNC4)cc3)c2n1 [Example 200, 1-(4-(5-(azetidin-3-yloxy)-3-(trifluoromethyl)-1H-pyrazol-1-yl)benzyl)-6-(4-cyclopropyl-6-methoxypyrimidin-5-yl)-1H-pyrazolo[3,4-d]pyrimidine]
10 | > 25 min | > 25 min | > 10 µM | < 10 µM | COc1ncnc(C2(C)CC2)c1-c1ncc2cnn(Cc3ccc(-n4nc(C(F)(F)F)cc4C)cc3)c2n1 [Example 105]
11 | < 25 min | > 25 min | > 10 µM | > 10 µM | COc1ncnc(C(C)(C)F)c1-c1ncc2cnn(Cc3ccc(-c4nc(C(F)(F)F)cn4C)cc3)c2n1 [Example 110]
12 | < 25 min | < 25 min | > 10 µM | < 10 µM | CCn1cc(C(F)(F)F)nc1-c1ccc(Cn2ncc3cnc(-c4c(OC)ncnc4C4CN(C)C4)nc32)cc1 [Example 101]
13 | > 25 min | > 25 min | < 10 µM | < 10 µM | COc1ncnc(C2CC2)c1-c1ncc2cnn(Cc3ccc(-n4nc(C(F)(F)F)cc4OCCO)cc3)c2n1 [Example 78]
14 | < 25 min | < 25 min | < 10 µM | < 10 µM | CNc1cc(C(F)(F)F)nn1-c1ccc(Cn2ncc3cnc(-c4c(OC)ncnc4C4CC4)nc32)cc1 [Example 120]
15 | < 25 min | > 25 min | > 10 µM | < 10 µM | COc1nc(C)c(-c2ncc3cnn(Cc4ccc(-c5nc(C(F)(F)F)cn5C)cc4)c3n2)c(OC)n1 [Example 111]
